The results in this text go back to PMC7596181 (Frontiers in Immunology, 2020).

The structures appear in SMILES notation.

Holding throughout (assay type): cell-based
Experiment [1] deals with T1, human TLR4 (Homo sapiens, UniProt O00206+Q9Y6Y9). Description: Competitive vs non-competitive antagonist type: agonist diluted in a fixed concentration of inhibitor, human TLR4 HEK-Blue SEAP. As to conditions: fixed ML3 3 μM, ML4A 3 μM or Lipid IVa 0.1 μM; agonist PHAD or 3D-6A-PHAD diluted from 10 μM. On the set-up: host or cells: HEK-Blue (HEK293-derived) reporter cells. On the procedure:
(§1) SEAP assays were performed to evaluate the extent to which TLR4 signaling was activated in HEK-Blue reporter cells expressing mouse or human receptors (CD14, MD2 and TLR4). Reporter cells were harvested when 70–80% confluent and plated in 96-well, flat-bottom microtiter plates either 1 h, one day or two days (5 × 10^4, 4 × 10^4 or 2 × 10^4 cells/well, respectively) before addition of TLR4 agonists for 18–24 h. Culture supernatants were transferred to U-bottom microtiter plates, centrifuged and transferred again to microtiter plates to ensure reporter cells were not present. The culture supernatants were added to QUANTI-BLUE substrate following instructions provided by the manufacturer (InvivoGen cat. nos. rep-qbl or rep-qbs) and incubated at 37°C in a tissue culture incubator. At successive intervals beginning 10 min after mixing the supernatants and substrate, the plates were placed in an Emax plate reader (Molecular Devices LLC) and optical density was measured at visible light wavelength […] (OD650). The shortest incubations at which dose response curve fits produced maximal R^2 ‘goodness of fit’ values, as determined by GraphPad Prism software, were used for analysis.
Pharmacological profiles of the TLR4 reagents were generated by performing dose response curves in one of four formats. 1) Agonist potency and efficacy (EC50 and height of dose plateau, respectively) were measured by diluting TLR4 reagents successively in complete culture medium [DMEM or RPMI supplemented with fetal bovine serum (FBS) or RPMI supplemented with human serum, depending on cell-type]. […] 2) Mixed agonist–antagonist potency and efficacy were measured by mixing a TLR4 agonist with a candidate antagonist at a fixed ratio and then performing half-log step dilutions before treating HEK reporter cells. […] 4) Inhibitory potency (IC50) was measured by diluting antagonists within a fixed concentration of a reference agonist, treating HEK reporter cells and performing SEAP assays as described.

The target in experiment [2] is T1, human TLR4. The experiment in a line: Mixed agonist-antagonist dose curves at fixed ratio, human TLR4 HEK-Blue SEAP. On the set-up: host or cells: HEK-Blue (HEK293-derived) reporter cells. Here is the method: as §1
Pharmacological profiles of the TLR4 reagents were generated by performing dose response curves in one of four formats. 1) Agonist potency and efficacy (EC50 and height of dose plateau, respectively) were measured by diluting TLR4 reagents successively in complete culture medium [DMEM or RPMI supplemented with fetal bovine serum (FBS) or RPMI supplemented with human serum, depending on cell-type]. Half-log step dilutions were performed in 96-well, U-bottom microtiter plates using a multichannel pipette to transfer and mix the suspensions, with fresh tips used for each dilution step. One-tenth (20 μl) volumes from wells of the dilution plate were then transferred to wells containing cells that had been plated in nine-tenth volumes (180 μl) of culture medium. 2) Mixed agonist–antagonist potency and efficacy were measured by mixing a TLR4 agonist with a candidate antagonist at a fixed ratio and then performing half-log step dilutions before treating HEK reporter cells. Analysis of values obtained from SEAP assays of culture supernatants was then performed as described for preparations containing agonist alone, above. 3) Competitive vs allosteric or non-competitive antagonist type was evaluated by diluting a reference agonist within a fixed concentration of a candidate inhibitor in half-log steps, treating HEK reporter cells, performing SEAP assays and then analyzing the data as described for agonist assays, above. Competitive antagonists are characterized by values that reach the same dose plateau as for a reference, full agonist, while shifting potency to higher EC50 values. […] 4) Inhibitory potency (IC50) was measured by diluting antagonists within a fixed concentration of a reference agonist, treating HEK reporter cells and performing SEAP assays as described.

The subject of the next experiment is human THP-1 cells. The experiment in a line: TNFα secretion (ELISA) by THP-1 cells. As to conditions: THP-1, PMA-treated, 18-24 h. On the procedure:
(§2) Human and mouse HEK-Blue reporter cells express human or mouse CD14, MD2, and TLR4 and secreted embryonic alkaline phosphatase (SEAP) under control of a promoter with binding sites for NFκB and AP-1 transcription factors (InvivoGen cat. nos. hkb-htlr4 and hkb-mtlr4). Cells were cultured as directed by the supplier, with the exception that Glutamax (ThermoFisher cat. no. 10569010) was used in place of L-glutamine, and TrypLE Express (ThermoFisher cat. no. 12605010) was used to release adherent cells for each passage. […]
(§3) ELISA was performed to measure TNFα secretion by cell-lines and primary cells exposed to TLR4 reagents as a measure of receptor activation. […] Human or mouse TNα was quantified using ELISA kits as directed by the kit supplier (eBioscience cat. nos. 88-7324-77 and 88-7324-88, respectively) using an Emax plate reader and SoftMax Pro analytical software (Molecular Devices, LLC). […]
(§4) Pharmacological profiles of the TLR4 reagents were generated by performing dose response curves in one of four formats. 1) Agonist potency and efficacy (EC50 and height of dose plateau, respectively) were measured by diluting TLR4 reagents successively in complete culture medium [DMEM or RPMI supplemented with fetal bovine serum (FBS) or RPMI supplemented with human serum, depending on cell-type]. […]

The test system of a further experiment is mouse RAW264.7 cells. The experiment in a line: TNFα secretion (ELISA) by RAW264.7 cells. As to conditions: RAW264.7, 18-24 h. Here is the method: as §2, §3, §4
[3] abbreviates: mixed with 3D-6A-PHAD at 5:1 antagonist:agonist.
The mark [4] stands for this setting: mixed with PHAD, ML4A up to 30:1 and 60:1 antagonist:agonist.

T1 sequence (O00206 24-839): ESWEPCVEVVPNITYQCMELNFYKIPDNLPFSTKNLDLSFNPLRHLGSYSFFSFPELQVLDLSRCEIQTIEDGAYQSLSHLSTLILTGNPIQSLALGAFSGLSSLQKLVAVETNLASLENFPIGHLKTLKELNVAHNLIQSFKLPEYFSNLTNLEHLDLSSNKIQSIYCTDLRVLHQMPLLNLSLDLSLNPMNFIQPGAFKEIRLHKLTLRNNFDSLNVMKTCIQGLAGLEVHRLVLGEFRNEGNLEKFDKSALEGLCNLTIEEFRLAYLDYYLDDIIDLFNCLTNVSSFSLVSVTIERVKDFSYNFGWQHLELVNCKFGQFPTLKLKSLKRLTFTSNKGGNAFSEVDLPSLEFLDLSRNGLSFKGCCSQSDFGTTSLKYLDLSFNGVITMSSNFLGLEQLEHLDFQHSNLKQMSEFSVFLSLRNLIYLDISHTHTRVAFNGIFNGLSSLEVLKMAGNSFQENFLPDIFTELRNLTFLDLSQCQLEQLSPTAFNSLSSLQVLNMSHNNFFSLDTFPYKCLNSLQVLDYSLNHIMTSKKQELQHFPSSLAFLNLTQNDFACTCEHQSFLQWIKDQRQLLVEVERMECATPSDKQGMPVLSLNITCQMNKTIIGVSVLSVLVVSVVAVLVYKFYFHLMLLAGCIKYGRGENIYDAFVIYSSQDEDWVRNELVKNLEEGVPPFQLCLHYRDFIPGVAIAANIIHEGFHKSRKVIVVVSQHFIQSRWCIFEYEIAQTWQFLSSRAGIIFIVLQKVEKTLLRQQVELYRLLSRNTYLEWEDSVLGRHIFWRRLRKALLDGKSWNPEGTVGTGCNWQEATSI
T1 sequence (Q9Y6Y9 17-160 limits assumed): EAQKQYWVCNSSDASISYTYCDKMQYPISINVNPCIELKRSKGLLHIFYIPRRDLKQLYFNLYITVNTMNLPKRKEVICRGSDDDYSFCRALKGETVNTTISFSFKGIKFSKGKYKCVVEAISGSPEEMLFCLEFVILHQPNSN

Consider `CCCCCCCCCCCC(=O)OC(CCCCCCCCCCC)CC(=O)NC1C(OCC2OC(O)C(NC(=O)CC(O)CCCCCCCCCCC)C(O)C2O)OC(CO)C(OP(=O)(O)O)C1OC(=O)CC(O)CCCCCCCCCCC` (stereo not shown) [ML4A], for which, on human TLR4 [1], the “antagonist type” value is given as “competitive antagonists of human TLR4”. For the same compound, the “effect on agonist dose curve in fixed-ratio mixture” value is “appeared to limit its activity” at human TLR4 [2] (setting [3]) and “very modestly reduced TLR4 stimulatory activity” on human TLR4 [2] (setting [4]).
With `CCCCCCCCCCCC(=O)OC(CCCCCCCCCCC)CC(=O)NC1C(OCC2OC(O)C(NC(=O)CC(O)CCCCCCCCCCC)C(O)C2O)OC(CO)C(OP(=O)(O)O)C1O` (stereo not shown) [ML3], the “agonist profile, TNFα production” value in the experiment with human THP-1 cells and in the experiment on mouse RAW264.7 cells was “largely inactive” in each case. Also, the “antagonist type” value at human TLR4 [1] was “competitive antagonists of human TLR4”. The “effect on agonist dose curve in fixed-ratio mixture” value on human TLR4 [2] (setting [3]) is listed as “appeared to limit its activity”; on human TLR4 [2] (setting [4]), “very modestly reduced TLR4 stimulatory activity”.
`CCCCCCCCCCCCCCCC(=O)OC(CCCCCCCCCCC)CC(=O)NC1C(O)OC(COC2OC(CO)C(OP(=O)(O)O)C(O)C2NC(=O)CC(CCCCCCCCCCC)OC(=O)CCCCCCCCCCC)C(O)C1O` (stereo not shown) [ML4B]: the “agonist profile, TNFα production” value in the experiment with human THP-1 cells and in the experiment with mouse RAW264.7 cells was “largely inactive” throughout.
